Key:
HMOX = experiment: Endogenous Nrf2 activation assay using BEAS-2B cells: HMOX mRNA expression; type: cell-based, human; details: 0.1% DMSO set to 1
Description: (§1) The human bronchial epithelial cell line BEAS-2B was from ATCC (American Type Culture Collection, Manassas, Va.) and cultured in Bronchial Epithelial cell Growth Medium (BEGM, Lonza, Wakersville, Md.) in CellIBIND® surface plastic flasks (Corning Inc., Corning, N.Y.). BEAS-2B cells were seeded in 6-well CellIBIND® surface culture plates (Corning Inc.) at 1×10^6 cells per well and incubated at 37° C. with 5% CO2 for 24 hours.
(§2) A 100 mM R-Sulforaphane stock solution was prepared in DMSO (ABCAM, Cat. No. ab141971, Lot GR303041-2). The R-Sulforaphane stock was diluted in DMSO to obtain the desired final concentrations. Withania somnifera extract (NIG-018911) stock solution was prepared in DMSO.
(§3) After 24 h, cells were treated with different concentrations of Withania somnifera extract (5 μg/ml, 10 μg/ml, 25 μg/ml), R-Sulforaphane (2 μM, 5 μM, 10 μM) or DMSO (0.1%) and incubated at 37° C. with 5% CO2 for 4 hrs or 24 hrs. Each treatment was done in triplicate.
(§4) RNA extraction, cDNA synthesis and TaqMan based real-time PCR: After 4 hrs and 24 hrs cells were harvested in RLT buffer, RNA isolation was done using the RNeasy Mini Kit from Qiagen (Cat. No. 74106). cDNA was prepared with 2500 ng total RNA using SuperScript™ First-Strand Synthesis System for RT-PCR (Invitrogen, Cat. No. 11904-018)
(§5) In a 20 μL PCR reaction, a total input of […] of cDNA was amplified in the ABI 7900 HT real-time PCR System (Applied Biosystems) using the TaqMan® Fast Advanced Master Mix (LifeTechnologies Cat. No. 4444557), 50 nM primers, and 100 nM probe (VIC-TAMRA-labeled) for the 18S rRNA internal control
(§6) and 300 nM primers and 100 nM probe (FAM-TAMRA-labeled) for the gene of interest human
(§7) The thermal cycling profile consisted of 2 min at 50° C. for Uracil-N-glycosylase activation, 95° C. for 20 seconds for polymerase activation followed by 40 cycles 95° C. for 1 second and primer annealing at 60° C. for 20 seconds.
(§8) Relative gene expression was performed by subtracting threshold cycles (CT) for ribosomal RNA from the CT of the targeted gene (ΔCT). Relative mRNA levels were then calculated as 2^−ΔΔCT, where ΔΔCT refers to the ΔCT of […].

Nrf2 = experiment: Luciferase reporter assay using H411E-ARE8L cells (Nrf2 activation); details: for Nrf-2 activity, Normalized data: R-sulforaphane set to 1.0, DMSO 0
Description: Luciferase Reporter Assay Using H411E-ARE8L Cells:
The medium for H411E-ARE8L cells was Dulbecco's Modified Eagle Medium (DMEM) high glucose containing heat inactivated 10% fetal bovine Serum (FBS). The media was exchanged every two to three-days. The DMEM assay medium used charcoal treated FBS (DMEMct). The transactivation assay was performed in 96 well plates. The plates were seeded with approximately 40′000 cells per well in 100 μl DMEMct and incubated over night at 37° C. Then the test compounds were diluted in DMEDct and given to the cells as described below. The cells were incubated for at least further 16 h at 37° C. and 5% CO2. Cells were equilibrated to room temperature. Lysis of the cells was done by adding 100 μL lysis solution, Steady-Glo© luciferase buffer according to the manufacturer (Promega) containing 0.5 mM DTT per well and incubated for 10 min at room temperature with gentle shaking. The luminescence was measured within 2 hours after incubation on a luminometer (Mithras, Berthold Technologies).
The negative control were cells in 0.5% DMSO.
All extracts, fractions and pure compounds were tested for concentrations that induce toxicity. Non-toxic concentrations were then selected for treating cells as describes in the methods section.

IL-6 [1] = experiment: IL-6 secretion of A549 cells treated with Diesel Particulate Matter; type: cell-based, human; details: for IL-6 / IL-6 % of PM + DMSO: Table 5, A549, 24 h
Excerpt: (§9) The human bronchial epithelial cell line BEAS-2B was from ATCC (American Type Culture Collection, Manassas, Va.) and cultured in Bronchial Epithelial cell Growth Medium (BEGM, Lonza, Wakersville, Md.) in CellBIND® surface plastic flasks (Corning Inc., Corning, N.Y.). The adenocarcinomic human alveolar basal epithelial A549 cell line was obtained from ATCC and cultured in Kaighn's Modification of Ham's F-12 Medium (F-12K medium) (Life Technologies, USA), supplemented with 10% FBS (Sigma, Saint-Louis, Mo.). These cells were cultured at 37° C. in a humidified atmosphere containing 5% CO2.
(§10) BEAS-2B cells were seeded in 12-well CellBIND® surface culture plates (Corning Inc.) at 3 to 4×10^5 cells per well. A549 cells were seeded in 12-well plates at 2×10^5 cells per well.
(§11) Diesel Particulate Matter (Standard Reference Material SRM 1650b, National Institute of Standards & Technology, NIST, Gaithersburg, Md.) at 80 mg/ml DMSO (100%) were sonicated for 5 min and thereafter diluted 400 fold in medium. This dilution was twofold further diluted for the assay.
(§12) After 24 h, cells were treated with the diluted Diesel Particulate Matter at 100 μg/ml and in the presence of different concentrations of Withania somnifera extracts, other plant extracts, fractions and compounds as indicated. The final DSMO concentrations were 0.175%.
(§13) Untreated cells or cells treated with 0.175% DMSO were used as controls. After 24 h, cell supernatants were collected.
(§14) The concentrations of IL-6 and IL-8 in the supernatants were determined by Luminex kits (BIO-RAD Laboratories, Hercules, Calif.) and used in the LiquiChip Workstation IS 200 (Qiagen, Hilden, Germany). The data were evaluated with the LiquiChip Analyser software (Qiagen).

NQO1 = experiment: Endogenous Nrf2 activation assay using BEAS-2B cells: NQO1 mRNA expression; type: cell-based, human; details: 0.1% DMSO set to 1
Description: as §1, §2, §3, §4, §5, §6, §7, §8

IL-8 = IL-8 secretion of A549 cells treated with Diesel Particulate Matter; type: cell-based, human; details: for IL-8 / IL-8 % of PM + DMSO: Table 7, A549, 24 h
Excerpt: as §9, §10, §11, §12, §13, §14

IL-6 [2] = experiment: IL-6 secretion of BEAS-2B cells treated with Diesel Particulate Matter; type: cell-based, human; details: for IL-6 / IL-6 % of PM + DMSO: 24 h
Excerpt: as §9, §10, §11, §12, §13, §14

MCP-1 = MCP-1 secretion of A549 cells treated with Diesel Particulate Matter; type: cell-based, human; details: for effect on PM-induced MCP-1 secretion (in words): A549; for MCP-1 / MCP-1 % of PM + DMSO: Table 9, A549, 24 h
Excerpt: The human bronchial epithelial cell line BEAS-2B was from ATCC (American Type Culture Collection, Manassas, Va.) and cultured in Bronchial Epithelial cell Growth Medium (BEGM, Lonza, Wakersville, Md.) in CellBIND® surface plastic flasks (Corning Inc., Corning, N.Y.). The adenocarcinomic human alveolar basal epithelial A549 cell line was obtained from ATCC and cultured in Kaighn's Modification of Ham's F-12 Medium (F-12K medium) (Life Technologies, USA), supplemented with 10% FBS (Sigma, Saint-Louis, Mo.). These cells were cultured at 37° C. in a humidified atmosphere containing 5% CO2. BEAS-2B cells were seeded in 12-well CellBIND® surface culture plates (Corning Inc.) at 3 to 4×10^5 cells per well. A549 cells were seeded in 12-well plates at 2×10^5 cells per well. […] This dilution was twofold further diluted for the assay. After 24 h, cells were treated with the diluted Diesel Particulate Matter at 100 μg/ml and in the presence of different concentrations of Withania somnifera extracts, other plant extracts, fractions and compounds as indicated. The final DSMO concentrations were 0.175%. Untreated cells or cells treated with 0.175% DMSO were used as controls. After 24 h, cell supernatants were collected.

PGE2 = PGE2 secretion of BEAS-2B cells treated with Diesel Particulate Matter; type: cell-based, human; details: Table 10, BEAS-2B, 24 h
Excerpt: as §9, §10, §11, §12, §13
Secreted PGE2 was determined by Enzyme Immuno Assay (EIA) (Cayman Chemicals, Ann Harbor, […].).

A549 cells = experiment: Toxicity / cell survival of A549 cells; type: cell-based, human; details: concentrations higher than 0.31 μg/ml
Description: (§15) Cell survival assays of the BEAS-2B and A549 cells were performed with AlamarBlue® Cell Viability Reagent (ThermoFisher Scientific) according to the protocol of the manufacturer. Non-toxic concentrations of the extracts, fractions and single compounds were selected for the assays.

BEAS-2B cells = experiment: Toxicity / cell survival of BEAS-2B cells; type: cell-based, human; details: at concentrations higher than 0.3 μg/ml
Description: as §15

[3] = Table 3, 0.3125 μg/ml + PM 100 μg/ml
[4] = Table 3, 10 μg/ml + PM 100 μg/ml

C[S@@+]([O-])CCCCN=C=S [R-Sulforaphane, R-sulforaphane]
Relative mRNA expression level at 4 h (HMOX) (HMOX; 2 μM): 9.48 | Relative mRNA expression level at 24 h (HMOX) (HMOX; 2 μM): 2.63 | Relative mRNA expression level at 4 h (HMOX) (HMOX; 5 μM): 22.44 | Relative mRNA expression level at 24 h (HMOX) (HMOX; 5 μM): 5.23 | Relative mRNA expression level at 4 h (HMOX) (HMOX; 10 μM): 27.43 | Relative mRNA expression level at 24 h (HMOX) (HMOX; 10 μM): 7.12 | Nrf-2 activity, Average (Nrf2; Conc. final 4.55 μg/ml): 29384 relative units of luciferase fluorescence | Nrf-2 activity, Normalized data (Nrf2; Conc. final 4.55 μg/ml): 1.0000 | reduction of PM-induced IL-6 secretion (IL-6 [1]; A549, concentration not given): about twofold | Relative mRNA expression level at 4 h (NQO1) (NQO1; 2 μM): 1.60 | Relative mRNA expression level at 24 h (NQO1) (NQO1; 2 μM): 4.66 | Relative mRNA expression level at 4 h (NQO1) (NQO1; 5 μM): 2.26 | Relative mRNA expression level at 24 h (NQO1) (NQO1; 5 μM): 7.62 | Relative mRNA expression level at 4 h (NQO1) (NQO1; 10 μM): 1.78 | Relative mRNA expression level at 24 h (NQO1) (NQO1; 10 μM): 8.77 | reduction of PM-induced cytokine secretion (IL-8 paragraph) (IL-8; A549, concentration not given): twofold | effect on PM-induced IL-6 secretion (in words) (IL-6 [2]; concentration not given): significantly reduced | effect on PM-induced MCP-1 secretion (in words) (MCP-1): clear inhibition

CC1=C(CO)C(=O)O[C@@H]([C@@H](C)[C@H]2CC[C@H]3[C@@H]4C[C@H]5O[C@]56[C@@H](O)C=CC(=O)[C@]6(C)[C@H]4CC[C@]23C)C1 [Withaferin A, withaferin A]
Nrf-2 activity, Average (Nrf2; Conc. final 0.28 μg/ml): 32053 relative units of luciferase fluorescence | effect on PM-induced IL-6 secretion (in words) (IL-6 [1]; A549): decrease | IL-6 (IL-6 [1]; 0.3125 μg/ml + PM 100 μg/ml): 3.5 pg/mL | IL-6 % of PM + DMSO (IL-6 [1]; 0.3125 μg/ml + PM 100 μg/ml): 29% | inhibition of IL-8 secretion (in words) (IL-8; A549, PM-induced, 0.31 μg/ml): highest inhibition of the pure compounds | IL-8 (IL-8; 0.3125 μg/ml + PM 100 μg/ml): 106.7 pg/mL | IL-8 % of PM + DMSO (IL-8; 0.3125 μg/ml + PM 100 μg/ml): 39% | PGE2 (PGE2; 0.3125 μg/ml + PM 100 μg/ml): 33.2 pg/mL | PGE2 % of PM + DMSO (PGE2; 0.3125 μg/ml + PM 100 μg/ml): 87% | effect on PM-induced IL-6 secretion (in words) (IL-6 [2]; 0.3 μg/ml): lowered | IL-6 (IL-6 [2]; [3]): 19.4 pg/mL | IL-6 % of PM + DMSO (IL-6 [2]; [3]): 77% | toxicity to A549 cells (A549 cells): toxic | effect on PM-induced MCP-1 secretion (in words) (MCP-1): significant decrease | MCP-1 (MCP-1; 0.3125 μg/ml + PM 100 μg/ml): 632 pg/mL | MCP-1 % of PM + DMSO (MCP-1; 0.3125 μg/ml + PM 100 μg/ml): 66% | toxicity to BEAS-2B cells (BEAS-2B cells): toxic

CC1=C(C)C(=O)O[C@@H]([C@](C)(O)[C@H]2CC[C@H]3[C@@H]4[C@@H]5O[C@@H]5[C@@]5(O)CC=CC(=O)[C@]5(C)[C@H]4CC[C@]23C)C1 [Withanolide A, withanolide A]
Nrf-2 activity, Average (Nrf2; Conc. final 22.73 μg/ml): 4677 relative units of luciferase fluorescence | Nrf-2 activity, Normalized data (Nrf2; Conc. final 22.73 μg/ml): 0.0629 | effect on PM-induced IL-6 secretion (in words) (IL-6 [1]; A549): decrease | IL-6 (IL-6 [1]; 10 μg/ml + PM 100 μg/ml): 15.2 pg/mL | IL-6 % of PM + DMSO (IL-6 [1]; 10 μg/ml + PM 100 μg/ml): 120% | effect on IL-8 secretion (in words) (IL-8; A549, PM-induced): no effect | IL-8 (IL-8; 10 μg/ml + PM 100 μg/ml): 313.7 pg/mL | IL-8 % of PM + DMSO (IL-8; 10 μg/ml + PM 100 μg/ml): 103% | PGE2 (PGE2; 10 μg/ml + PM 100 μg/ml): 34.7 pg/mL | PGE2 % of PM + DMSO (PGE2; 10 μg/ml + PM 100 μg/ml): 91% | IL-6 (IL-6 [2]; [4]): 32.8 pg/mL | IL-6 % of PM + DMSO (IL-6 [2]; [4]): 131% | effect on PM-induced MCP-1 secretion (in words) (MCP-1): low, but non-significant decrease | MCP-1 (MCP-1; 10 μg/ml + PM 100 μg/ml): 790.7 pg/mL | MCP-1 % of PM + DMSO (MCP-1; 10 μg/ml + PM 100 μg/ml): 91%
